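How tested: cells in 96-well plates exposed to compound for 48 hours at five concentrations. GI50 = concentration required for 50% inhibition of growth.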 Active and inactive are the calls of the source. Cut-off read from the data, not from the text of the source: active = GI50 up to about 1.1 µM and inactive = higher.
Assays:
Test in all cases: NCI tumour cell line growth inhibition, 48 h
K562 = test system: K562
M19-MEL = test system: M19-MEL
HCC 2998 = test system: HCC 2998
NCI-H226 = test system: NCI-H226
NCI/ADR-RES = test system: NCI/ADR-RES
HT-29 = test system: HT-29
DMS-114 = test system: DMS-114
SF-295 = test system: SF-295
UACC-257 = test system: UACC-257
CCRF-CEM = test system: CCRF-CEM
Malme-3M = test system: Malme-3M
UACC-62 = test system: UACC-62
SW-620 = test system: SW-620
U-251 = test system: U-251
SN12C = test system: SN12C
SK-MEL-5 = test system: SK-MEL-5
MOLT-4 = test system: MOLT-4
LOX IMVI = test system: LOX IMVI
SK-OV-3 = test system: SK-OV-3
HOP-92 = test system: HOP-92

Measured: GI50

Cc1ccc(OP2(=O)Oc3ccc4ccccc4c3CN2c2ccc(Cl)cc2)cc1C (configuration not stated)
inactive: K562 > 100 µM | M19-MEL > 100 µM | HCC 2998 > 100 µM | NCI-H226 > 100 µM | NCI/ADR-RES > 100 µM | HT-29 > 100 µM | DMS-114 > 100 µM | SF-295 > 100 µM | UACC-257 > 100 µM | CCRF-CEM > 100 µM | Malme-3M > 100 µM | UACC-62 > 100 µM | SW-620 > 100 µM | U-251 > 100 µM | SN12C > 100 µM | SK-MEL-5 > 100 µM | MOLT-4 > 100 µM | LOX IMVI > 100 µM | SK-OV-3 > 100 µM | HOP-92 > 100 µM

Cc1ccccc1NC(=O)C(=O)C(C1OC(=O)c2ccccc21)[N+](=O)[O-] (configuration not stated)
inactive: K562 > 100 µM | M19-MEL > 100 µM | HCC 2998 > 100 µM | NCI-H226 > 100 µM | HT-29 > 100 µM | DMS-114 > 100 µM | SF-295 > 100 µM | UACC-257 > 100 µM | CCRF-CEM 68.7 µM | UACC-62 > 100 µM | SW-620 > 100 µM | U-251 > 100 µM | SN12C > 100 µM | SK-MEL-5 > 100 µM | MOLT-4 > 100 µM | LOX IMVI > 100 µM | SK-OV-3 > 100 µM | HOP-92 > 100 µM

CSCSCC(N)CO.Cc1[nH]c(=O)[nH]c(=O)c1/C=C/C(=O)O
inactive: K562 > 625 µM | M19-MEL > 625 µM | HCC 2998 > 625 µM | NCI-H226 > 625 µM | NCI/ADR-RES > 625 µM | HT-29 > 625 µM | DMS-114 > 625 µM | SF-295 582 µM | UACC-257 > 625 µM | CCRF-CEM > 625 µM | Malme-3M > 625 µM | UACC-62 > 625 µM | SW-620 > 625 µM | U-251 > 625 µM | SN12C > 625 µM | SK-MEL-5 > 625 µM | MOLT-4 590 µM | LOX IMVI > 625 µM | SK-OV-3 > 625 µM | HOP-92 583 µM

C=CC1(NC(=O)c2ccccc2)CCC(C(C)(C)C)CC1 (configuration not stated)
inactive: K562 30.8 µM | M19-MEL 29.5 µM | HCC 2998 36.7 µM | NCI-H226 27.8 µM | NCI/ADR-RES 19.6 µM | HT-29 23.9 µM | DMS-114 27.7 µM | SF-295 7.26 µM | UACC-257 26.4 µM | CCRF-CEM 18.5 µM | Malme-3M 34.2 µM | UACC-62 26.6 µM | SW-620 35.3 µM | U-251 22.5 µM | SN12C 35.2 µM | SK-MEL-5 19.9 µM | MOLT-4 10.6 µM | LOX IMVI 20.3 µM | SK-OV-3 80.7 µM

COc1ccccc1-c1cc(O)c2c(C)ccnc2n1
inactive: K562 14.2 µM | HCC 2998 64.9 µM | NCI-H226 15.8 µM | NCI/ADR-RES 19.3 µM | HT-29 33.1 µM | UACC-257 47.9 µM | CCRF-CEM 35.6 µM | Malme-3M 39 µM | UACC-62 42.9 µM | SW-620 6.1 µM | SN12C 41 µM | MOLT-4 31.7 µM | LOX IMVI 37.9 µM | SK-OV-3 23 µM | HOP-92 66.7 µM

O=[N+]([O-])c1cnccc1-n1nnc2ccccc21
inactive: K562 20.7 µM | M19-MEL 15.3 µM | HCC 2998 19.7 µM | NCI-H226 18.9 µM | NCI/ADR-RES 20.2 µM | HT-29 28.3 µM | DMS-114 11.5 µM | SF-295 20.2 µM | UACC-257 14.7 µM | CCRF-CEM 19.8 µM | Malme-3M 17.3 µM | UACC-62 13.8 µM | SW-620 24.3 µM | U-251 22.5 µM | SN12C 16 µM | SK-MEL-5 13.9 µM | MOLT-4 > 48 µM | LOX IMVI 12.6 µM | SK-OV-3 23.3 µM | HOP-92 18.8 µM

O=C1OCc2cccc3c2-c2c1cccc2C(=O)OC3
inactive: K562 > 100 µM | M19-MEL > 100 µM | HCC 2998 > 100 µM | HT-29 > 100 µM | DMS-114 > 100 µM | SF-295 > 100 µM | Malme-3M > 100 µM | UACC-62 > 100 µM | U-251 > 100 µM | SK-MEL-5 > 100 µM | MOLT-4 > 100 µM | SK-OV-3 > 100 µM | HOP-92 38.5 µM

COC(=O)N1CC2C3C4CC(C(c5ccccc5)=C4c4ccccc4)C3C21 (configuration not stated)
inactive: K562 6.04 µM | HCC 2998 16.3 µM | NCI-H226 14 µM | NCI/ADR-RES 16.8 µM | HT-29 17.1 µM | SF-295 13.4 µM | UACC-257 13.7 µM | CCRF-CEM 14.9 µM | UACC-62 13.2 µM | SW-620 18.1 µM | U-251 13.2 µM | SN12C 17.6 µM | SK-MEL-5 11.5 µM | MOLT-4 12.5 µM | LOX IMVI 12.2 µM | SK-OV-3 20 µM | HOP-92 11.7 µM

Source: ChEMBL document CHEMBL1201862, “PubChem BioAssay data set” (2004)
